Measurements as given in publication PMC9147192, “Small Molecule Arranged Thermal Proximity Coaggregation (smarTPCA)—A Novel Approach to Characterize Protein–Protein Interactions in Living Cells by Similar Isothermal Dose–Responses” (International Journal of Molecular Sciences, 2022).
“And” between values parts separate entries of the source, which are not always exact repeats. Equal values may be shown once. Read-outs that look alike come from different tables or passages of the source.

What was measured:
GSK-3α = molecular target: T1, GSK-3α (Homo sapiens, UniProt P49840); experiment: CETSA in living HL-60 cells, immunoblot; type: cell-based
T1 construct: parallel detection of MAPK14, MAPKAPK2, MAPKAPK3, and GSK-3α; endogenous in cells; host or cells: HL-60 (ATCC CCL-240), living cells or cell extract
Protocol: (§1) First, we conducted CETSA experiments according to Jafari et al.. […] Subsequent SDS-PAGE and immunoblotting were performed according to optimized conditions allowing for parallel detection of MAPK14, MAPKAPK2, MAPKAPK3, and GSK-3α (Supplementary Figure S1).
(§2) HL-60 cells (ATCC No. CCL-240) were expanded to about […] in 80 mL cell culture medium (RPMI-1640 supplemented with 10% (v/v) FBS, 1% (v/v) penicillin-streptomycin and 1% (v/v) L-glutamine solution) and divided into four aliquots (20 mL each, 25 million cells per flask). […] The same volume of DMSO was added to the remaining aliquot serving as the vehicle (DMSO) control. After incubation (1 h, 37 °C, 5% CO2, in cell culture CO2 incubator), the cell suspensions were transferred into 50 mL conical tubes, cell number and viability were determined, and after centrifugation (300 relative centrifugal force (rcf), 3 min, room temperature (r.t.)), the supernatants were completely removed and discarded. The cells were washed using 20 mL Dulbecco’s phosphate-buffered saline (PBS), respectively, by resuspension and centrifugation (300 rcf, 3 min, r.t.). After the complete removal of the supernatants, the cells were transferred into pre-weighed 2 mL Eppendorf tubes using 0.5 mL PBS (r.t.), respectively, for resuspending. After centrifugation (300 rcf, 3 min, r.t.) and removing as much as possible of the supernatants, the cell wet weights were determined.
(§3) The suspensions were shortly centrifuged (1 s or less) using a benchtop centrifuge that was equipped with an inset for PCR tubes to release trapped air and to achieve an even liquid level without pelleting the cells. The 100 µL cell suspensions were then temperature treated by a 7 min pre-incubation at r.t., a 3 min incubation at the following different temperatures in the PCR cycler (DNA Engine Tetrad 2, lid temperature 70 °C, gradient block 1: 36–55 °C, gradient block 2: 48–67 °C), and a 3 min post-incubation at r.t. in a metal heating block for uniform heat dissipation.
(§4) The cells were lysed by four freeze/thaw cycles consisting of thawing the samples (in a heat block set to 25 °C and shaking at 1250 rpm) accompanied by mixing them several times by inversion and then shock freezing them again in liquid nitrogen. The resulting lysates were kept cold (on ice or 4 °C) from then on. After centrifugation (20,000 rcf, 30 min, 4 °C) to pellet the cell debris together with precipitated and aggregated proteins, the supernatants were recovered and, after determining the total protein concentration (Pierce 660 nm Protein Assay, BSA as standard), the resulting cell extracts containing the fraction of soluble, non-denatured proteins were shock frozen in liquid nitrogen and stored at −80 °C.
(§5) For each sample set comprising either ten temperature range samples or ten compound concentration range samples, the same volume of the cell extracts containing the fraction of soluble, non-denatured proteins was used for further analysis. This volume was determined using the two lowest temperature samples (36.5 and 41.2 °C) per temperature range sample set so that they contained an average of 5 µg total protein (e.g., 2.78 µL for all temperature range samples of a sample set whose two lowest temperature samples contain an average of 1.8 mg/mL protein). For the compound concentration range experiments, all samples of a set were used for averaging.

MAPKAPK2 [1] = molecular target: T2, MAPKAPK2 (Homo sapiens, UniProt P49137); experiment: CETSA in living HL-60 cells, immunoblot; type: cell-based; settings: for Top: top plateau of melting curve fit
Protocol: as §1, §2, §3, §4, §5

MAPKAPK3 [2] = molecular target: T3, MAPKAPK3 (Homo sapiens, UniProt Q16644); experiment: CETSA in living HL-60 cells, immunoblot; type: cell-based
Protocol: as §1, §2, §3, §4, §5

MAPKAPK2 [3] = molecular target: T2, MAPKAPK2; experiment: TPP-TR in living HL-60 cells; type: cell-based; settings: 20 μM, single set (no replicates)
Protocol: as §2, §3, §4
(§6) For each sample set comprising ten temperature range samples, the same volume of the cell extracts containing the fraction of soluble, non-denatured proteins was used for further analysis. Volume calculation for 30 µg total protein was performed as described for SDS-PAGE and immunoblotting. The calculated volume was respectively transferred into 0.5 mL LoBind Eppendorf tubes and evaporated to dryness using vacuum centrifugation (SpeedVac concentrator, Eppendorf, Hamburg, Germany). The dried proteins were each reconstituted in 10 µL of SDS sample buffer (containing DTT) and incubated for 30 min at 50 °C with shaking (700 rpm). 1.111 µL 1 M iodoacetamide (IAA) was added to each sample (final 100 mM IAA), then the samples were mixed and incubated for 30 min at r.t. in the dark. Sample quality was controlled by SDS-PAGE/silver staining using 0.926 µL of each sample (2.5 µg on average for the two lowest temperature samples; 26-well 4–12% Bis-Tris polyacrylamide gels, Novex NuPAGE, Thermo Scientific; 15 min at 50 V, about 1.5 h at 200 V using the recommended MOPS running buffer).

MAPKAPK3 [4] = molecular target: T3, MAPKAPK3; experiment: TPP-TR in living HL-60 cells; type: cell-based; settings: 20 μM, single set (no replicates)
Protocol: as §2, §3, §4, §6

MYLK = MYLK (Homo sapiens, UniProt Q15746); experiment: TPP-TR in living HL-60 cells; type: cell-based; settings: 20 μM, single set (no replicates)
Protocol: as §2, §3, §4, §6

MAPKAPK2 phosphorylation = experiment: MAPKAPK2 phosphorylation-dependent electrophoretic mobility shift (PDEMS) immunoblot, living HL-60 cells; settings: 20 µM inhibitor
[5] = GSK-3α, living cells, immunoblot
[6] = living HL-60 cells, 20 µM inhibitor, immunoblot
[7] = living HL-60 cells, 20 µM inhibitor, immunoblot, read-out: ΔTm to DMSO (GSK-3α)
[8] = MAPKAPK2, living cells, immunoblot
[9] = living HL-60 cells, 20 µM inhibitor, immunoblot, 20 µM
[10] = MAPKAPK3, living cells, immunoblot

T3 sequence (Q16644 whole entry): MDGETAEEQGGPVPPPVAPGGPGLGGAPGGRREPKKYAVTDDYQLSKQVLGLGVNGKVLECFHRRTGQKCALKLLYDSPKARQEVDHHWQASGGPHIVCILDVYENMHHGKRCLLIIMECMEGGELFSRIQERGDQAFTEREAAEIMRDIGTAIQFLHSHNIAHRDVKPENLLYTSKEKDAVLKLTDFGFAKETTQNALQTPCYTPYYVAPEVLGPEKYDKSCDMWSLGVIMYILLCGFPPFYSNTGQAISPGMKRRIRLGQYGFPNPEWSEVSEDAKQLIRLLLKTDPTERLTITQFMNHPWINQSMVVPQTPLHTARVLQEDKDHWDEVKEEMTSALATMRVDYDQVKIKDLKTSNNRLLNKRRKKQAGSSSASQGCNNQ
T1 sequence (P49840 whole entry): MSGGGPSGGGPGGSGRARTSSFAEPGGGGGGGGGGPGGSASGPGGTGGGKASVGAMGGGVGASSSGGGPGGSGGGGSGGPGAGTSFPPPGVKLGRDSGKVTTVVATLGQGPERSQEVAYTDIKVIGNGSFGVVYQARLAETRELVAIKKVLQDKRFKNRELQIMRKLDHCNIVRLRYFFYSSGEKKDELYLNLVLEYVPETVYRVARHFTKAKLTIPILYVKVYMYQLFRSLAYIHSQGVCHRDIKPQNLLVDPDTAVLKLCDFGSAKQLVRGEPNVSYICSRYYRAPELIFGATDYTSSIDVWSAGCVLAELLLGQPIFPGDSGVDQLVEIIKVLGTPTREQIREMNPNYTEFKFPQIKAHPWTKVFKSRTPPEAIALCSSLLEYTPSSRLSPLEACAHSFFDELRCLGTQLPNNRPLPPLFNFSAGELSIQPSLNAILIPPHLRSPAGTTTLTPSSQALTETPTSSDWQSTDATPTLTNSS
T2 sequence (P49137 whole entry): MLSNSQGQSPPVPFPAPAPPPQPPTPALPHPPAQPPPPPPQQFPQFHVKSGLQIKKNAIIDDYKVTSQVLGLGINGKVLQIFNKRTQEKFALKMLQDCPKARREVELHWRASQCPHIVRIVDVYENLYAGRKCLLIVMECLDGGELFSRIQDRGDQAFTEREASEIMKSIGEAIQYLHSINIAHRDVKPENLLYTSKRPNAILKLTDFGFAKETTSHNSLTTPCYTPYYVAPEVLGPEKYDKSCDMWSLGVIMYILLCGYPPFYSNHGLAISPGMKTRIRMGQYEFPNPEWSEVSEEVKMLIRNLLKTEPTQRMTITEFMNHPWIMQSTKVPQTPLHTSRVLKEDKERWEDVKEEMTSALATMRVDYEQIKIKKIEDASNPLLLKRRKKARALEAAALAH
Chain of MYLK (Q15746 whole entry): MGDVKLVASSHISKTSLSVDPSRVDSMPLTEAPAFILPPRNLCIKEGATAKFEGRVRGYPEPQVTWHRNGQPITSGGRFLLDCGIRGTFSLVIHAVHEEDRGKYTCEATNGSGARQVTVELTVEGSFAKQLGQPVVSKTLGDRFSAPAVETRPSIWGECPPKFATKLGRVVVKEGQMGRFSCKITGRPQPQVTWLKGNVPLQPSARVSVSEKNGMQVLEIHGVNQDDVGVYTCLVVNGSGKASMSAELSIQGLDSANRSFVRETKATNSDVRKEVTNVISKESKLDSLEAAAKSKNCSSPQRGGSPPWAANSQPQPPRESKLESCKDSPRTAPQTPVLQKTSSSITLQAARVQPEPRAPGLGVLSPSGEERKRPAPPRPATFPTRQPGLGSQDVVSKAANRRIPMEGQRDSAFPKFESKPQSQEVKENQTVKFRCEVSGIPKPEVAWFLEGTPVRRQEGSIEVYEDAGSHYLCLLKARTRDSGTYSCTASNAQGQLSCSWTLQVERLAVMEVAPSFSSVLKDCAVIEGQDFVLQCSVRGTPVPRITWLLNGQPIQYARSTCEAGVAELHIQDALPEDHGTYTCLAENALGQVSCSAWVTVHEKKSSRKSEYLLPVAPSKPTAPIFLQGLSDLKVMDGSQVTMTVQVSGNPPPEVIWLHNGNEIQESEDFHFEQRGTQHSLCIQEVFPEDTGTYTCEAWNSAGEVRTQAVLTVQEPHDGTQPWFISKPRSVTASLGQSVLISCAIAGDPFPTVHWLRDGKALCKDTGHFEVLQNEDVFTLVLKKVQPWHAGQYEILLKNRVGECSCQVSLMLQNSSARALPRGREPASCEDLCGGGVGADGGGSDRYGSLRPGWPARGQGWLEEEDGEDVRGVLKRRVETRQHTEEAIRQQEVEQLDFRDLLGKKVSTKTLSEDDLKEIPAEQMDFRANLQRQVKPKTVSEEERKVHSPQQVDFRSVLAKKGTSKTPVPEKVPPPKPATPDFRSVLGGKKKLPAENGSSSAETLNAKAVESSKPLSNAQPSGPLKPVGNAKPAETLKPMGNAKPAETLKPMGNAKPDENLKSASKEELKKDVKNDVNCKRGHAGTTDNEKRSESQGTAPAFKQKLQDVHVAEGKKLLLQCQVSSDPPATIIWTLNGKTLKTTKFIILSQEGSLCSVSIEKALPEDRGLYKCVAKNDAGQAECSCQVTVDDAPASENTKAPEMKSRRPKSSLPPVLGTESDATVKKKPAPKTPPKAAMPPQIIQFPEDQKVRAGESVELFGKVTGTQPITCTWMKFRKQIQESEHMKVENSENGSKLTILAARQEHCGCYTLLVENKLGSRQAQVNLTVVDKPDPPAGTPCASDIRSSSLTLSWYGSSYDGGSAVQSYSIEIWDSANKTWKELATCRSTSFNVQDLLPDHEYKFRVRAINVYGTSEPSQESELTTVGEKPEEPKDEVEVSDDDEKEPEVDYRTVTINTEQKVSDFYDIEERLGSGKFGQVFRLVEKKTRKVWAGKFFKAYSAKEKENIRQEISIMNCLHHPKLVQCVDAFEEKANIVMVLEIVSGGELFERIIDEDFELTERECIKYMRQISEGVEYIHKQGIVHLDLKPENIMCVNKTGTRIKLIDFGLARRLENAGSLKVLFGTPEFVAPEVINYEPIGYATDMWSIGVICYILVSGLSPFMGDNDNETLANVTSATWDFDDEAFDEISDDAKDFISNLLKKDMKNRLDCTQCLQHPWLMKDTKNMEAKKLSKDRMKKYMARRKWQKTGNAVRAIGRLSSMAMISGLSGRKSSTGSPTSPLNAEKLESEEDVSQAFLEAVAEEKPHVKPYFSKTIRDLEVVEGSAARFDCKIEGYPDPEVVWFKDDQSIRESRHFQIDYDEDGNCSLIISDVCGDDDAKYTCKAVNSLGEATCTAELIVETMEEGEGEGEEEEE

Row | Compound | Tm (GSK-3α; [5]) [°C] | Tm (GSK-3α) (GSK-3α; [6]) [°C] | ΔTm at 20 µM (GSK-3α; [7]) [°C] | Tm (MAPKAPK2 [1]; [8]) [°C] | ΔTm to DMSO (MAPKAPK2 [1]; [8]) [°C] | Tm (MAPKAPK2) (MAPKAPK2 [1]; [6]) [°C] | ΔTm to DMSO (MAPKAPK2) (MAPKAPK2 [1]; [9]) | Tm (MAPKAPK3 [2]; [10]) [°C] | ΔTm to DMSO (MAPKAPK3 [2]; [10]) [°C] | Tm (MAPKAPK3) (MAPKAPK3 [2]; [6]) [°C] | ΔTm to DMSO (MAPKAPK3) (MAPKAPK3 [2]; [9]) | thermal stabilization in melting curves (MAPKAPK2) (MAPKAPK2 [3]) | thermal stabilization in melting curves (MAPKAPK3) (MAPKAPK3 [4]) | thermal stabilization in melting curves (MYLK) (MYLK) | MAPKAPK2 phosphorylation (band pattern, PDEMS) (MAPKAPK2 phosphorylation) | ΔTm at 20 µM (GSK-3α; HL-60, read-out: ΔTm to DMSO (GSK-3α)) [°C] | ΔTm at 20 µM (MAPKAPK2 [1]; HL-60, read-out: ΔTm to DMSO (MAPKAPK2)) [°C] | Top (MAPKAPK2 [1]; MAPKAPK2, living cells) [%] | ΔTm at 20 µM (MAPKAPK3 [2]; HL-60, read-out: ΔTm to DMSO (MAPKAPK3)) [°C] | ΔTm to DMSO (GSK-3α; [5]) [°C]
1 | Cn1c(NC[C@@H](N)Cc2ccccc2)nc(-c2ccncc2)c(-c2ccc3ccccc3c2)c1=O [AMG-548] | 53.26 | 53.26 | -0.71 | 54.39 | 5.18 | 54.39 | 5.2 °C and 5.18 °C | 54.68 | 6.62 | 54.68 | 6.6 °C and 6.62 °C | thermal stabilizations | thermal stabilizations | thermal stabilizations | inhibited apparent MAPKAPK2 phosphorylation |  |  |  |  | 
2 | Cc1cnc(Nc2ccc(F)cc2Cl)nc1-c1c[nH]c(C(=O)N[C@H](CO)c2cccc(Cl)c2)c1 [ERK 11e] | 54.11 | 54.11 |  |  |  |  |  |  |  |  |  |  |  |  | double band | 0.14 | -0.02 | 36.1 | 0.26 | 
3 | C[S+]([O-])c1ccc(-c2nc(-c3ccncc3)c(-c3ccc(F)cc3)[nH]2)cc1 (stereo not drawn) [SB203580] | 54.03 | 54.03 | 0.05 |  |  |  |  | 51.56 |  | 51.56 |  | thermal stabilizations | thermal stabilizations | thermal stabilizations | inhibited apparent MAPKAPK2 phosphorylation |  |  | 87.0 |  | 0.0529
